From paper PMC5218480 (PLoS ONE, 2017)

Tested on: MV-4-11 cells
Assay: Gene expression microarray analysis (Affymetrix PrimeView) and GSEA
Format: cell-based, human
Set-up: RFU PODN (11730768_x_at) / Fold change /veh PODN (11730768_x_at) / RFU LINC00158 (11744669_a_at) / Fold change /veh LINC00158 (11744669_a_at) / RFU DUSP10 (11751237_a_at) / Fold change /veh DUSP10 (11751237_a_at) / RFU ID3 (11757404_x_at) / Fold change /veh ID3 (11757404_x_at) / RFU PLEKHG5 (11737974_s_at) / Fold change /veh PLEKHG5 (11737974_s_at) / RFU LRRC4B (11730491_at) / Fold change /veh LRRC4B (11730491_at) / RFU GIMAP4 (11747438_a_at) / Fold change /veh GIMAP4 (11747438_a_at) / RFU KRT8 (11758183_x_at) / Fold change /veh KRT8 (11758183_x_at) / RFU CNN1 (11734310_a_at) / Fold change /veh CNN1 (11734310_a_at) / RFU VPS37D (11726825_at) / Fold change /veh VPS37D (11726825_at) / RFU C10orf10 (11716522_x_at) / Fold change /veh C10orf10 (11716522_x_at) / RFU KIR2DL2 /// KIR2DL4 /// KIR2DL5A /// KIR2DL5B /// KIR2DS1 /// KIR2DS2 /// KIR2DS3 /// KIR2DS4 /// KIR3DL3 /// KIR3DL3 /// KIR3DS1 (11738374_at) / Fold change /veh KIR2DL2 /// KIR2DL4 /// KIR2DL5A /// KIR2DL5B /// KIR2DS1 /// KIR2DS2 /// KIR2DS3 /// KIR2DS4 /// KIR3DL3 /// KIR3DL3 /// KIR3DS1 (11738374_at) / RFU C1QL1 (11718748_at) / Fold change /veh C1QL1 (11718748_at) / RFU TMPRSS4 (11747572_a_at) / Fold change /veh TMPRSS4 (11747572_a_at) / RFU HAMP (11756126_x_at) / Fold change /veh HAMP (11756126_x_at) / RFU RNFT2 (11725882_a_at) / Fold change /veh RNFT2 (11725882_a_at) / RFU NR4A2 (11747474_a_at) / Fold change /veh NR4A2 (11747474_a_at) / RFU ABCC12 (11746883_a_at) / Fold change /veh ABCC12 (11746883_a_at) / RFU TMEM136 (11760407_x_at) / Fold change /veh TMEM136 (11760407_x_at) / RFU CLDN22 /// WWC2 (11732394_at) / Fold change /veh CLDN22 /// WWC2 (11732394_at) / RFU HLA-DPB1 (11760878_x_at) / Fold change /veh HLA-DPB1 (11760878_x_at) / RFU SPINT1 (11716480_a_at) / Fold change /veh SPINT1 (11716480_a_at) / RFU GAP43 (11754022_s_at) / Fold change /veh GAP43 (11754022_s_at) / RFU A4GNT (11735810_at) / Fold change /veh A4GNT (11735810_at) / RFU PRB3 (11715151_x_at) / Fold change /veh PRB3 (11715151_x_at) / RFU TUBB4B (11761932_at) / Fold change /veh TUBB4B (11761932_at) / RFU CAPN14 (11732068_a_at) / Fold change /veh CAPN14 (11732068_a_at) / RFU TMCC2 (11721928_a_at) / Fold change /veh TMCC2 (11721928_a_at) / RFU IRGQ (11745062_a_at) / Fold change /veh IRGQ (11745062_a_at) / RFU FAM174B (11720279_a_at) / Fold change /veh FAM174B (11720279_a_at) / RFU TMPRSS4 (11748680_a_at) / Fold change /veh TMPRSS4 (11748680_a_at) / RFU FAM212B (11763350_a_at) / Fold change /veh FAM212B (11763350_a_at) / RFU PLEKHG5 (11743358_a_at) / Fold change /veh PLEKHG5 (11743358_a_at) / RFU ZSCAN30 (11745921_a_at) / Fold change /veh ZSCAN30 (11745921_a_at) / RFU CMKLR1 (11741424_a_at) / Fold change /veh CMKLR1 (11741424_a_at) / RFU LOC101060620 /// MAPK8IP1 (11723275_at) / Fold change /veh LOC101060620 /// MAPK8IP1 (11723275_at) / RFU SPTSSB (11747773_x_at) / Fold change /veh SPTSSB (11747773_x_at) / RFU PRSS12 (11739890_at) / Fold change /veh PRSS12 (11739890_at) / RFU BIN1 (11741810_x_at) / Fold change /veh BIN1 (11741810_x_at) / RFU WNT11 (11732464_a_at) / Fold change /veh WNT11 (11732464_a_at) / RFU C10orf10 (11716521_a_at) / Fold change /veh C10orf10 (11716521_a_at) / RFU C5orf56 (11738089_at) / Fold change /veh C5orf56 (11738089_at) / RFU CYB561 (11721691_x_at) / Fold change /veh CYB561 (11721691_x_at) / RFU ANKRD19P (11752326_a_at) / Fold change /veh ANKRD19P (11752326_a_at) / RFU OR2T12 /// OR2T33 /// OR2T8 (11738714_s_at) / Fold change /veh OR2T12 /// OR2T33 /// OR2T8 (11738714_s_at) / RFU VCAN (11748164_a_at) / Fold change /veh VCAN (11748164_a_at) / RFU JSRP1 (11732532_at) / Fold change /veh JSRP1 (11732532_at) / RFU KRTAP10-11 (11738290_x_at) / Fold change /veh KRTAP10-11 (11738290_x_at) / RFU MYO3A (11730013_a_at) / Fold change /veh MYO3A (11730013_a_at) / RFU EBF3 (11725865_a_at) / Fold change /veh EBF3 (11725865_a_at) / RFU CAMK2N1 (11719241_x_at) / Fold change /veh CAMK2N1 (11719241_x_at) / RFU C5orf56 (11738088_a_at) / Fold change /veh C5orf56 (11738088_a_at) / RFU OLFML3 (11715873_a_at) / Fold change /veh OLFML3 (11715873_a_at) / RFU LOC100653217 /// NTM (11731650_a_at) / Fold change /veh LOC100653217 /// NTM (11731650_a_at) / RFU MAPK11 (11762145_a_at) / Fold change /veh MAPK11 (11762145_a_at) / RFU FIZ1 (11724087_x_at) / Fold change /veh FIZ1 (11724087_x_at) / RFU OASL (11726364_x_at) / Fold change /veh OASL (11726364_x_at) / RFU SOX15 (11748057_x_at) / Fold change /veh SOX15 (11748057_x_at) / RFU CD79A (11719716_a_at) / Fold change /veh CD79A (11719716_a_at) / RFU HIST1H1D (11736915_at) / Fold change /veh HIST1H1D (11736915_at) / RFU CASKIN2 (11723855_a_at) / Fold change /veh CASKIN2 (11723855_a_at) / RFU LOC730098 (11760151_x_at) / Fold change /veh LOC730098 (11760151_x_at) / RFU OR4N2 (11742367_at) / Fold change /veh OR4N2 (11742367_at) / RFU PRRT2 (11749266_a_at) / Fold change /veh PRRT2 (11749266_a_at) / RFU SNX32 (11753110_a_at) / Fold change /veh SNX32 (11753110_a_at) / RFU CDHR5 (11726645_a_at) / Fold change /veh CDHR5 (11726645_a_at) / RFU RCAN1 (11760418_a_at) / Fold change /veh RCAN1 (11760418_a_at) / RFU FAM167A (11723789_a_at) / Fold change /veh FAM167A (11723789_a_at) / RFU FAM26E (11764081_at) / Fold change /veh FAM26E (11764081_at) / RFU ISYNA1 (11749810_s_at) / Fold change /veh ISYNA1 (11749810_s_at) / RFU ACY1 (11761880_at) / Fold change /veh ACY1 (11761880_at) / RFU 11764098_at / Fold change /veh 11764098_at / RFU SAMD14 (11745864_x_at) / Fold change /veh SAMD14 (11745864_x_at) / RFU NPB (11741838_a_at) / Fold change /veh NPB (11741838_a_at) / RFU TMPRSS6 (11731388_a_at) / Fold change /veh TMPRSS6 (11731388_a_at) / RFU KRTAP10-2 (11738614_at) / Fold change /veh KRTAP10-2 (11738614_at) / RFU ARHGAP8 /// PRR5-ARHGAP8 (11727945_x_at) / Fold change /veh ARHGAP8 /// PRR5-ARHGAP8 (11727945_x_at) / RFU KRTAP5-7 /// NADSYN1 (11734609_at) / Fold change /veh KRTAP5-7 /// NADSYN1 (11734609_at) / RFU RASL12 (11751679_a_at) / Fold change /veh RASL12 (11751679_a_at) / RFU CDKN2B (11736163_a_at) / Fold change /veh CDKN2B (11736163_a_at) / RFU PRF1 (11729649_at) / Fold change /veh PRF1 (11729649_at) / RFU, ZNF638 /// ZNF638-IT1 / Fold change vs veh, ZNF638 /// ZNF638-IT1 / RFU, PANK3 / Fold change vs veh, PANK3 / RFU, SH3YL1 / Fold change vs veh, SH3YL1 / RFU, ZEB2 / Fold change vs veh, ZEB2 / RFU, NRIP1 / Fold change vs veh, NRIP1 / RFU, PTTG1IP / Fold change vs veh, PTTG1IP / RFU, CAPN2 / Fold change vs veh, CAPN2 / RFU, MED14 / Fold change vs veh, MED14 / RFU, SNORA58 / Fold change vs veh, SNORA58 / RFU, C1orf63 / Fold change vs veh, C1orf63 / RFU, LRRFIP1 / Fold change vs veh, LRRFIP1 / RFU, NDUFAF7 / Fold change vs veh, NDUFAF7 / RFU, SLC12A2 / Fold change vs veh, SLC12A2 / RFU, IBTK / Fold change vs veh, IBTK / RFU, ESF1 / Fold change vs veh, ESF1 / Fold change vs veh, TMEM50B / RFU, TAOK1 / Fold change vs veh, TAOK1 / RFU, ACBD3 / Fold change vs veh, ACBD3 / RFU, TMA16 / Fold change vs veh, TMA16 / RFU, RWDD3 / Fold change vs veh, RWDD3 / RFU, BCAT1 / Fold change vs veh, BCAT1 / RFU, EDEM3 / Fold change vs veh, EDEM3 / RFU, TMEM33 / Fold change vs veh, TMEM33 / RFU, WDR75 / Fold change vs veh, WDR75 / RFU, AHCTF1 / Fold change vs veh, AHCTF1 / RFU, TFRC / Fold change vs veh, TFRC / RFU, ZDHHC17 / Fold change vs veh, ZDHHC17 / RFU, NOM1 / Fold change vs veh, NOM1 / RFU, ARL8B / Fold change vs veh, ARL8B / RFU, ZBTB11 / Fold change vs veh, ZBTB11 / RFU, TAMM41 / Fold change vs veh, TAMM41 / RFU, KIAA1704 /// LOC100996395 / Fold change vs veh, KIAA1704 /// LOC100996395 / RFU, ING1 / Fold change vs veh, ING1 / RFU, TRMT61B / Fold change vs veh, TRMT61B / RFU, FUBP3 / Fold change vs veh, FUBP3 / RFU, TP53 / Fold change vs veh, TP53 / RFU, TNKS2 / Fold change vs veh, TNKS2 / RFU, ZFP14 / Fold change vs veh, ZFP14 / RFU, ACTR2 / Fold change vs veh, ACTR2 / RFU, PPP3R1 / Fold change vs veh, PPP3R1 / RFU, PIK3R1 / Fold change vs veh, PIK3R1 / RFU, HNRNPA1 / Fold change vs veh, HNRNPA1 / RFU, RNF170 / Fold change vs veh, RNF170 / RFU, ZNF28 / Fold change vs veh, ZNF28 / RFU, RNGTT / Fold change vs veh, RNGTT / RFU, OGT / Fold change vs veh, OGT / RFU, BRD1 / Fold change vs veh, BRD1 / RFU, MARS / Fold change vs veh, MARS / RFU, ZNF655 / Fold change vs veh, ZNF655 / RFU, FAHD1 / Fold change vs veh, FAHD1 / RFU, BDP1 / Fold change vs veh, BDP1 / RFU, LRRCC1 / Fold change vs veh, LRRCC1 / RFU, ARID1A / Fold change vs veh, ARID1A / RFU, ZNF146 / Fold change vs veh, ZNF146 / RFU, ZNF330 / Fold change vs veh, ZNF330 / RFU, GPN3 / Fold change vs veh, GPN3 / RFU, C9orf123 / Fold change vs veh, C9orf123 / RFU, N4BP2L2 / Fold change vs veh, N4BP2L2 / RFU, ARFIP1 / Fold change vs veh, ARFIP1 / RFU, FAM179B / Fold change vs veh, FAM179B / RFU, BCL10 / Fold change vs veh, BCL10 / RFU, UHRF1BP1L / Fold change vs veh, UHRF1BP1L / RFU, BET1 / Fold change vs veh, BET1 / RFU, CNOT2 / Fold change vs veh, CNOT2 / RFU, ZNF268 / Fold change vs veh, ZNF268 / Fold change vs veh, ZNF507 / RFU, DGCR2 / Fold change vs veh, DGCR2 / RFU, WDSUB1 / Fold change vs veh, WDSUB1 / Fold change vs veh, HSP90B1 /// MIR3652 / RFU, ADSS / Fold change vs veh, ADSS / RFU, GK / Fold change vs veh, GK / RFU, ZNF148 / Fold change vs veh, ZNF148 / RFU, TAF9 / Fold change vs veh, TAF9 / RFU, SLC1A5 / Fold change vs veh, SLC1A5 / RFU, SLMO2 / Fold change vs veh, SLMO2 / RFU, ABCC4 / Fold change vs veh, ABCC4 / RFU, LOC101060439 /// RAP1B / Fold change vs veh, LOC101060439 /// RAP1B / RFU, RFX7 / Fold change vs veh, RFX7 / RFU, GTPBP10 / Fold change vs veh, GTPBP10 / RFU, CNEP1R1 / Fold change vs veh, CNEP1R1 / RFU, BIVM-ERCC5 /// ERCC5 / Fold change vs veh, BIVM-ERCC5 /// ERCC5 / RFU, ILF3 / Fold change vs veh, ILF3 / RFU 11762660_at / Fold change /veh 11762660_at / RFU VCAN (11757783_s_at) / Fold change /veh VCAN (11757783_s_at) / RFU DDX43 (11728927_at) / Fold change /veh DDX43 (11728927_at) / RFU KRT8 (11758188_x_at) / Fold change /veh KRT8 (11758188_x_at) / RFU NKD1 (11759106_at) / Fold change /veh NKD1 (11759106_at) / RFU SRD5A1 (11742802_a_at) / Fold change /veh SRD5A1 (11742802_a_at) / RFU TPSAB1 /// TPSB2 (11721975_s_at) / Fold change /veh TPSAB1 /// TPSB2 (11721975_s_at) / RFU GSTM3 (11746129_a_at) / Fold change /veh GSTM3 (11746129_a_at) / RFU IL23R (11737362_x_at) / Fold change /veh IL23R (11737362_x_at) / RFU TMEM51 (11727254_a_at) / Fold change /veh TMEM51 (11727254_a_at) / RFU PIWIL2 (11732686_x_at) / Fold change /veh PIWIL2 (11732686_x_at) / RFU ORM1 (11744905_x_at) / Fold change /veh ORM1 (11744905_x_at) / RFU CCDC152 (11743942_at) / Fold change /veh CCDC152 (11743942_at) / RFU ECM1 (11717891_a_at) / Fold change /veh ECM1 (11717891_a_at) / RFU IL23R (11748794_a_at) / Fold change /veh IL23R (11748794_a_at) / RFU TNFAIP8L3 (11732012_x_at) / Fold change /veh TNFAIP8L3 (11732012_x_at) / RFU MBOAT4 (11741988_at) / Fold change /veh MBOAT4 (11741988_at) / RFU 11764193_at / Fold change /veh 11764193_at / RFU TMEM53 (11763286_at) / Fold change /veh TMEM53 (11763286_at) / RFU MAGEB2 (11727129_at) / Fold change /veh MAGEB2 (11727129_at) / RFU TMEM200A (11744735_a_at) / Fold change /veh TMEM200A (11744735_a_at) / RFU CCDC152 (11751479_a_at) / Fold change /veh CCDC152 (11751479_a_at) / RFU FAM211A (11726209_a_at) / Fold change /veh FAM211A (11726209_a_at) / RFU RGS16 (11746705_a_at) / Fold change /veh RGS16 (11746705_a_at) / RFU VCAN (11755009_s_at) / Fold change /veh VCAN (11755009_s_at) / RFU RHOB (11743442_s_at) / Fold change /veh RHOB (11743442_s_at) / RFU RGS16 (11720943_a_at) / Fold change /veh RGS16 (11720943_a_at) / RFU RGS16 (11720944_at) / Fold change /veh RGS16 (11720944_at) / RFU, VPS4B / Fold change vs veh, VPS4B / RFU, CREB1 / Fold change vs veh, CREB1 / RFU, DNAJC13 / Fold change vs veh, DNAJC13 / RFU, GNAQ / Fold change vs veh, GNAQ / RFU, CDK5R1 / Fold change vs veh, CDK5R1 / RFU, ZRANB3 / Fold change vs veh, ZRANB3 / RFU, CUL4A / Fold change vs veh, CUL4A / RFU, CCNY / Fold change vs veh, CCNY / RFU, UFL1 / Fold change vs veh, UFL1 / RFU, COG3 / Fold change vs veh, COG3 / RFU, DIAPH2 / Fold change vs veh, DIAPH2 / RFU, SKA2 / Fold change vs veh, SKA2 / RFU, AFF3 / Fold change vs veh, AFF3 / RFU, LMF1 / Fold change vs veh, LMF1 / RFU, IPO11 / Fold change vs veh, IPO11 / RFU, DFFB / Fold change vs veh, DFFB / RFU, FOXP1 / Fold change vs veh, FOXP1 / RFU, CARD8 / Fold change vs veh, CARD8 / RFU, STRN3 / Fold change vs veh, STRN3 / RFU, ADK / Fold change vs veh, ADK / RFU, RASSF2 / Fold change vs veh, RASSF2 / RFU, WIPF1 / Fold change vs veh, WIPF1 / RFU, LARP1B / Fold change vs veh, LARP1B / RFU, RASA1 / Fold change vs veh, RASA1 / RFU, RB1 / Fold change vs veh, RB1 / RFU, PPFIA1 / Fold change vs veh, PPFIA1 / RFU, MAT2A / Fold change vs veh, MAT2A / RFU, CCT5 / Fold change vs veh, CCT5 / RFU, WDR92 / Fold change vs veh, WDR92 / RFU, CUX1 / Fold change vs veh, CUX1 / RFU, TTC7A / Fold change vs veh, TTC7A / RFU, TMEM135 / Fold change vs veh, TMEM135 / RFU, DEPTOR / Fold change vs veh, DEPTOR / RFU, CPM / Fold change vs veh, CPM / RFU, DNAJB6 / Fold change vs veh, DNAJB6 / RFU, CACNA2D3 / Fold change vs veh, CACNA2D3 / RFU, DTX4 / Fold change vs veh, DTX4 / RFU, TFCP2 / Fold change vs veh, TFCP2 / RFU, GMCL1 /// GMCL1P1 / Fold change vs veh, GMCL1 /// GMCL1P1 / RFU, AEBP2 / Fold change vs veh, AEBP2 / RFU, SNHG1 /// SNORD22 /// SNORD25 /// SNORD26 /// SNORD27 /// SNORD28 /// SNORD29 /// SNORD31 / Fold change vs veh, SNHG1 /// SNORD22 /// SNORD25 /// SNORD26 /// SNORD27 /// SNORD28 /// SNORD29 /// SNORD31 / Fold change (Aza/veh), C12orf56 (ProbeSet 11735607_a_at) / Fold change (ACY-1035/veh), C12orf56 (ProbeSet 11735607_a_at) / Fold change (Aza/veh), FGFR1OP (ProbeSet 11751329_s_at) / Fold change (ACY-1035/veh), FGFR1OP (ProbeSet 11751329_s_at) / Fold change (Aza/veh), VPS36 (ProbeSet 11739960_a_at) / Fold change (ACY-1035/veh), VPS36 (ProbeSet 11739960_a_at) / RFU SYPL1 (11715823_x_at) / Fold change /veh SYPL1 (11715823_x_at) / RFU IGFBP7 (11715501_s_at) / Fold change /veh IGFBP7 (11715501_s_at) / RFU REEP3 (11722064_at) / Fold change /veh REEP3 (11722064_at) / RFU IGLL1 (11728026_x_at) / Fold change /veh IGLL1 (11728026_x_at): dose or concentration left out as unconfirmed
Details: ProbeSet 11716331_a_at; LIST D

SMILES: Nc1ncn([C@@H]2O[C@H](CO)[C@@H](O)[C@H]2O)c(=O)n1 [azacitidine]
- Fold change vs veh, DNAJB6: 0.52
